Source: patent publication US20200392075A1, “COMPOSITIONS AND METHODS FOR TREATMENT OF INSULIN RESISTANCE” (Temple University - Of The Commonwealth System Of Higher …, priority 2018, published 2020)

Assays:
GLUT4 = target: T1, GLUT4 (Homo sapiens, UniProt P14672); test: HNE-induced GLUT4 carbonylation (K264-HNE adduct) by MRM in 3T3-L1 adipocytes overexpressing GLUT4-SNAP; type: cell-based; details: 20 μM for 4 hour, 3T3-L1 cells overexpressing GLUT4
T1 construct: SNAP (SNAP-tag fusion partner); expressed in transfected cells; host or cells: 3T3-L1 adipocytes, retrovirally transduced
T1 sequence (P14672 1-509): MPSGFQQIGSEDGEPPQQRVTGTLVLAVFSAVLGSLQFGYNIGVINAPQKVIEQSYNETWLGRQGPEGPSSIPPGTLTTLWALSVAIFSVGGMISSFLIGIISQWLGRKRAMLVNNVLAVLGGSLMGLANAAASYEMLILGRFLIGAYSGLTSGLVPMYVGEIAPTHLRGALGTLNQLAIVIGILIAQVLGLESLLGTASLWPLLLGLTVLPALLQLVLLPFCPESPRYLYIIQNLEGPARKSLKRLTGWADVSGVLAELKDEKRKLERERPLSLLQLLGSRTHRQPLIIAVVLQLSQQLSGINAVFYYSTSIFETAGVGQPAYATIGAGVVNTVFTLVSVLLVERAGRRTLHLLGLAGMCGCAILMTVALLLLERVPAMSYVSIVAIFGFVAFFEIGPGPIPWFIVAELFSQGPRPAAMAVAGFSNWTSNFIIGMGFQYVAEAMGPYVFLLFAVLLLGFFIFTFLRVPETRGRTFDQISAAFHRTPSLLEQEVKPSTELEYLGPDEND
Method: A GLUT4-SNAP fusion construct is generated. 3T3-L1 adipocytes were then retrovirally transduced with the construct to overexpress the GLUT4-SNAP protein. Twenty-four hours after the transduction, the cells were treated with and without 20 μM of 4-HNE for an additional 4 hours. This 4-HNE dose is chosen because it is similar to the physiological levels and is non-toxic. In order to identify and quantitate GLUT4 carbonylation (K264 NHE-adduct or R265 and R246 glutamic semialdehyde adducts), a mass spectroscopy-based multiple reaction monitoring (MRM) method is developed and validated.
[…] of the GLUT4 peptide found in humans were used for quantitation.

3T3-L1 adipocytes = test: Insulin-induced glucose uptake by 3T3-L1 adipocytes after 4-HNE / H2O2 treatment (MRM); type: cell-based, mouse; details: 500 μM for 4 hour, then 100 nM insulin for 60 minutes
Method: 3T3-L adipocytes (1×10^6) were treated with either 500 μM of 4-HNE or H2O2 or combination of both for 4 hour and were then stimulated with 100 nM insulin for 60 minutes. The glucose uptake is measured by a specific MRM method.

Compound | formation of the K264-HNE adduct (GLUT4 carbonylation) (GLUT4) | reduction of insulin-induced glucose uptake (3T3-L1 adipocytes)
CCCCCC(O)/C=C/C=O (stereo not drawn) [Example 4-HNE, 4-hydroxynonenal] | induced the formation of the K264-HNE adduct | 32%
OO [Example H2O2] |  | 66%
